In patent US8450342B2, “Perharidines as CDK inhibitors” (Centre Nationale de la Recherche Scientifique, priority 2008, dated 2013):
Where two headings read alike, the source gives them in different places.

How the values were obtained:
[1] = biological target: DYRK1A (Homo sapiens, UniProt Q13627); assay: DYRK1A kinase assay; type: biochemical; conditions: Table 5; read-out: DYRK1A
Method: (§1) Blank values were subtracted and activities expressed in % of the maximal activity, i.e. in the absence of inhibitors. Controls were performed with appropriate dilutions of dimethylsulfoxide.
(§2) The compounds were tested at various concentrations in the kinase assays, as described in the Methods section.

[2] = system: HEK 293 human embryonic kidney cell line; assay: Cell survival (MTS assay), HEK293; type: cell-based
Method: (§3) SH-SY5Y human neuroblastoma cells were grown in DMEM medium (Invitrogen, Cergy Pontoise, France). […] Human foreskin primary fibroblasts (kindly provided by Dr. Gilles Ponzio) were grown in DMEM supplemented with 2 mM L-glutamine and 20 mM HEPES. All the media were supplemented with antibiotics (penicillin-streptomycin) from Lonza and 10% volume of FCS from Invitrogen. Cells were cultured at 37° C. with 5% CO2. Drug treatments were performed on exponentially growing cultures at the indicated time and concentrations. Control experiments were carried out using appropriate dilutions of DMSO. MDCK cell-lines were used to test compounds PKD.

[3] = system: HCT116 (Spheroids); assay: Cell survival, HCT116 (Spheroids); type: cell-based; conditions: Homo sapiens, HCT-116; Table 6
[4] = biological target: CDK7/cyclin H (Homo sapiens, UniProt P50613); assay: CDK7/cyclin H kinase assay; type: biochemical; conditions: Table 4
Method: as §1, §2

[5] = biological target: T1, CDK9/cyclin T (Homo sapiens, UniProt P50750); assay: CDK9/cyclin T kinase assay; type: biochemical; conditions: Table 5; read-out: CDK9/cyclin T
T1 construct: made in house; host or cells: insect cells
Method: as §1

[6] = system: RNA polymerase II Ser2 phosphorylation; assay: Western blot, RNA polymerase II Ser2 phosphorylation in SH-SY5Y; type: cell-based, human; conditions: for total RNA pol II: FIG. 10
Method: (§4) SH-SY5Y human neuroblastoma cells were grown in DMEM medium (Invitrogen, Cergy Pontoise, France). The HEK 293 human embryonic kidney cell line was grown in MEM medium from Invitrogen. Human foreskin primary fibroblasts (kindly provided by Dr. Gilles Ponzio) were grown in DMEM supplemented with 2 mM L-glutamine and 20 mM HEPES. All the media were supplemented with antibiotics (penicillin-streptomycin) from Lonza and 10% volume of FCS from Invitrogen. Cells were cultured at 37° C. with 5% CO2. Drug treatments were performed on exponentially growing cultures at the indicated time and concentrations. Control experiments were carried out using appropriate dilutions of DMSO. MDCK cell-lines were used to test compounds PKD.
(§5) Cells were resuspended and lysed for 30 minutes at 4° C. in Homogenization Buffer [60 mM β-glycerophosphate, 15 mM p-nitrophenyl phosphate, 25 mM MOPS (pH 7.2), 15 mM EGTA, 15 mM MgCl2, 1 mM dithiothreitol, 1 mM sodium vanadate, 1 mM NaF, 1 mM phenylphosphate, 0.1% Nonidet P-40 and protease inhibitor cocktail] and sonicated. After centrifugation (14000 rpm for 15 minutes at 4° C.), the protein concentration was determined in the supernatants by the Bradford protein assay (Bio-Rad).
(§6) Whole cell extracts were prepared in buffer containing 100 mM Tris/HCl (pH, 6.8), 1 mM EDTA, 2% SDS and protease inhibitor cocktail. Following heat denaturation for 5 minutes, proteins were separated on 10% or 7% NuPAGE pre-cast Bis-Tris or Tris-Acetate polyacrylamide mini gels (Invitrogen) with MOPS SDS (all but cytochrome C, RNA polymerase II and phospho-Ser2—RNA polymerase II Western blots), MES SDS (cytochrome C), or Tris-Acetate SDS (RNA polymerase II and phospho-Ser2—RNA polymerase II) running buffer depending on protein size. Proteins were transferred to 0.45 μm nitrocellulose filters (Schleicher and Schuell). These were blocked with 5% low fat milk in Tris-Buffered Saline—Tween-20, incubated for 1 h with antibodies (anti-actin: 1:2000) or overnight at 4° C. (cytochome C: 1:500), Rb (1:500), phosphor-Rb (1:500), phospho-Thr320-PP1α (1:1000), RNA polymerase II (1:500), phosphor-Ser2-RNA polymerase II (1:500), Mcl-1 (1:500), caspase-9 (1:1000) and analyzed by Enhanced Chemiluminescence (ECL, Amersham).

[7] = biological target: T2, CDK2/cyclin A (Homo sapiens, UniProt P24941); assay: CDK2/cyclin A kinase assay; type: biochemical; conditions: Table 5; read-out: CDK2/cyclin A
T2 construct: made in house; host or cells: insect cells
Method: as §1
CDK2/cyclin A (human, recombinant, expressed in insect cells) was assayed as described for CDK1/cyclin B.

[8] = biological target: T3, CDK5/p25 (Homo sapiens, UniProt Q00535); assay: CDK5/p25 kinase assay; type: biochemical
T3 construct: made in house
Method: (§7) Controls were performed with appropriate dilutions of dimethylsulfoxide.
(§8) ATP (3,000 Ci/mmol; 10 mCi/ml) in a final volume of 30 μl. After 30 min. incubation at 30° C., 25 μl aliquots of supernatant were spotted onto 2.5×3 cm pieces of Whatman P81 phosphocellulose paper, and, 20 sec. later, the filters were washed five times (for at least 5 min. each time) in a solution of 10 ml phosphoric acid/liter of water. The wet filters were counted in the presence of 1 ml ACS (Amersham) scintillation fluid.

[9] = system: B2-CLL lymphocytes; assay: Survival / cell death of B2-CLL lymphocytes from patients; type: cell-based, human
Method: Cell viability was determined by measuring the reduction of 3-(4,5-dimethylthiazol-2-yl)-5-(3-carboxymethoxyphenyl)-2-(4-sulfophenyl)-2/H-tetrazolium (MTS). Cell death was determined by measuring the level of lactate dehydrogenase activity (LDH) released upon cell lysis.

[10] = biological target: CDK1/cyclin B; assay: CDK1/cyclin B kinase assay; type: biochemical, starfish
Method: as §7, §8

[11] = biological target: GSK-3α/β; assay: GSK-3α/β kinase assay; type: biochemical, porcine
Method: as §1

[12] = system: SH-SY5Y human neuroblastoma cells; assay: Cell survival (MTS assay), SH-SY5Y; type: cell-based; conditions: read-out: SH-SY5Y cell survival
Method: as §3

[13] = system: LS 174T; assay: Cell survival, LS 174T; type: cell-based; conditions: Homo sapiens, LS174T; Table 6
Method: Cell viability was determined by measuring the reduction of 3-(4,5-dimethylthiazol-2-yl)-5-(3-carboxymethoxyphenyl)-2-(4-sulfophenyl)-2H-tetrazolium (MTS). Cell death was determined by measuring the level of lactate dehydrogenase activity (LDH) released upon cell lysis.

[14] = biological target: Erk2 (Homo sapiens, UniProt P28482); assay: Erk2 kinase assay; type: biochemical; conditions: Table 5
Method: as §1, §2

[15] = system: retinoblastoma protein phosphorylation; assay: Western blot, retinoblastoma protein phosphorylation on CDK2/CDK4 sites in SH-SY5Y; type: cell-based, human; conditions: for total Rb: FIG. 8
Method: as §3, §5, §6

[16] = biological target: CDK2/cyclin E (Homo sapiens, UniProt P24941); assay: CDK2/cyclin E kinase assay; type: biochemical; conditions: Table 5
Method: as §7, §2

[17] = biological target: CK1δ/ε; assay: CK1 kinase assay; type: biochemical, porcine; conditions: read-out: CK1
Method: as §1

[18] = system: PARP cleavage; assay: Western blot, PARP cleavage in SH-SY5Y; type: cell-based, human; conditions: FIG. 15, compared with (R)-Roscovitine
Method: as §4, §5
(§9) Whole cell extracts were prepared in buffer containing 100 mM Tris/HCl (pH, 6.8), 1 mM EDTA, 2% SDS and protease inhibitor cocktail. […]

[19] = system: LS 174T (Oncodesign); assay: Cell survival, LS 174T (Oncodesign); type: cell-based; conditions: Homo sapiens, LS174T; Table 6
[20] = system: HCT116 (Oncodesign); assay: Cell survival, HCT116 (Oncodesign); type: cell-based; conditions: Homo sapiens, HCT-116; Table 6
[21] = system: protein phosphatase 1-α Thr320 phosphorylation; assay: Western blot, protein phosphatase 1-α phosphorylation on Thr320 in SH-SY5Y; type: cell-based, human; conditions: FIG. 11, compared with (R)-Roscovitine
Method: as §4, §5, §9

[22] = system: p27 total protein; assay: Western blot, p27 total protein in SH-SY5Y; type: cell-based, human; conditions: FIG. 14, compared with (R)-Roscovitine
Method: as §4, §5, §9

[23] = system: Mcl-1; assay: Western blot, survival factor Mcl-1 in SH-SY5Y; type: cell-based, human; conditions: FIG. 12, compared with (R)-Roscovitine
Method: as §4, §5, §9

[24] = system: p53 total protein; assay: Western blot, p53 total protein in SH-SY5Y; type: cell-based, human; conditions: FIG. 13, compared with (R)-Roscovitine
Method: as §4, §5, §9

[25] = system: cell lines; assay: Anti-proliferative activities on cell lines, summary; type: cell-based; conditions: in words; listed as formula Ib
[26] = Homo sapiens, Lymphocyte, LLC B-cells, read-out: Cell death induction
[27] = Homo sapiens, Lymphocyte, Table 6, read-out: Chronic Lymphocytic Leukemia cell survival
[28] = Table 5, read-out: CDK1/cyclin B

Chain of Erk2 (P28482 whole entry, species assumed): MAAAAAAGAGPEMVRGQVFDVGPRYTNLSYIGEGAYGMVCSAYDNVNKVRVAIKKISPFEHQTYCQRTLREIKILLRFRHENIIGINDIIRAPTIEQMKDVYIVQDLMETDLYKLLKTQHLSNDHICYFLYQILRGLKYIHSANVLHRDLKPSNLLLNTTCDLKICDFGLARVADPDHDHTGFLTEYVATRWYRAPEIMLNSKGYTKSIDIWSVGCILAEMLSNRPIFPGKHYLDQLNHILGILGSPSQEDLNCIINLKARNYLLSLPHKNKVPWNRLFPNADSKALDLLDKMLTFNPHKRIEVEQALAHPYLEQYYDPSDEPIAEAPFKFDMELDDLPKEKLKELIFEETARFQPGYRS
T1 sequence (P50750 whole entry): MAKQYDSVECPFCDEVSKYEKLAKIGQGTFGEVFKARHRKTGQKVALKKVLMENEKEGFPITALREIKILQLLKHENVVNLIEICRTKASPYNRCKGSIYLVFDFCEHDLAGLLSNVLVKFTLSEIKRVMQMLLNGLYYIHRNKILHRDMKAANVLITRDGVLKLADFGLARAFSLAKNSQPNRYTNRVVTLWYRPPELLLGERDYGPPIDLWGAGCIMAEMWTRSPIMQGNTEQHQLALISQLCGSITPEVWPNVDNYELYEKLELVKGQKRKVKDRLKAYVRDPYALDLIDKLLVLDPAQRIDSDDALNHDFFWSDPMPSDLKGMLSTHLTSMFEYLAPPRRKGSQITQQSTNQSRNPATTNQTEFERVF
T1 sequence (O60563 whole entry partner): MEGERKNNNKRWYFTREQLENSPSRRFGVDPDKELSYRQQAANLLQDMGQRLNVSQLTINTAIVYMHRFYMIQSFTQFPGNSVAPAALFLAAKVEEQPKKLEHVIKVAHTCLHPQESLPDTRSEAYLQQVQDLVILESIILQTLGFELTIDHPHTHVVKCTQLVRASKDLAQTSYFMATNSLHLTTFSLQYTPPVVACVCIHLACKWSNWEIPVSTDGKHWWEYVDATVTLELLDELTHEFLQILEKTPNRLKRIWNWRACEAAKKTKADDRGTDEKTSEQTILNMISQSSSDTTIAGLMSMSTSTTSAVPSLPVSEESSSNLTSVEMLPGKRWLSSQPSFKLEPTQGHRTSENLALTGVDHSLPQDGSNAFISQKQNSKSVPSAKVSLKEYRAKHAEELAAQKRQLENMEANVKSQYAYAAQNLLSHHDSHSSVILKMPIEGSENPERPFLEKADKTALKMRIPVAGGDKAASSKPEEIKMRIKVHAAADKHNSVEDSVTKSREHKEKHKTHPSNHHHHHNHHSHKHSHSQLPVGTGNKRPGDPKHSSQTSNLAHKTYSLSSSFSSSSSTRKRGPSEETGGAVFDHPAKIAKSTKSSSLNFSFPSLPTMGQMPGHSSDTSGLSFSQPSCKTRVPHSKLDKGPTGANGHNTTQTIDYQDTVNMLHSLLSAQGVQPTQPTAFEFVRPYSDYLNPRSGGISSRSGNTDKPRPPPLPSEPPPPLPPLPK
T3 sequence (Q00535 whole entry): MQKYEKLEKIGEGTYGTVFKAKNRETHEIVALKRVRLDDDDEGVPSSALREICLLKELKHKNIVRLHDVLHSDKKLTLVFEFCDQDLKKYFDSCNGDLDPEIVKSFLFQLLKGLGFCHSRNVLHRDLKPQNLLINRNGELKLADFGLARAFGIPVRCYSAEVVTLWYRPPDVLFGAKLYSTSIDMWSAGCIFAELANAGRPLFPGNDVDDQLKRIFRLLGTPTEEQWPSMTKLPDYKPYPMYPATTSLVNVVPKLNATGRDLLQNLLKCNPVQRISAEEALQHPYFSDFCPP
T3 sequence (Q15078 99-307 partner limits assumed): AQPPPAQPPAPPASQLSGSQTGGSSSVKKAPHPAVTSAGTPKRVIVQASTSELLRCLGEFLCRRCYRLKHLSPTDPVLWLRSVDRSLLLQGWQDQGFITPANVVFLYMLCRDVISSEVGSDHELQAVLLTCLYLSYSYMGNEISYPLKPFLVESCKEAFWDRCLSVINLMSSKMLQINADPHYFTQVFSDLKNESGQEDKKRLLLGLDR
Chain of CDK7/cyclin H (P50613 whole entry, species assumed): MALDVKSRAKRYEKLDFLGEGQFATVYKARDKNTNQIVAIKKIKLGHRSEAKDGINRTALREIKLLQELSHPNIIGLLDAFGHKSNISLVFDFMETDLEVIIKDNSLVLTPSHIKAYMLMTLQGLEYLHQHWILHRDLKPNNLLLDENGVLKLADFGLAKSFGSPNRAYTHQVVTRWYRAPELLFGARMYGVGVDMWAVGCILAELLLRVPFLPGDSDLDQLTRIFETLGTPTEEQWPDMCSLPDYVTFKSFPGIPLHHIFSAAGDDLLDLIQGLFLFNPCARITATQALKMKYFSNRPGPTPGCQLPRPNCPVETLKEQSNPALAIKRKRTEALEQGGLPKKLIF
Chain of CDK7/cyclin H (P51946 whole entry partner, species assumed): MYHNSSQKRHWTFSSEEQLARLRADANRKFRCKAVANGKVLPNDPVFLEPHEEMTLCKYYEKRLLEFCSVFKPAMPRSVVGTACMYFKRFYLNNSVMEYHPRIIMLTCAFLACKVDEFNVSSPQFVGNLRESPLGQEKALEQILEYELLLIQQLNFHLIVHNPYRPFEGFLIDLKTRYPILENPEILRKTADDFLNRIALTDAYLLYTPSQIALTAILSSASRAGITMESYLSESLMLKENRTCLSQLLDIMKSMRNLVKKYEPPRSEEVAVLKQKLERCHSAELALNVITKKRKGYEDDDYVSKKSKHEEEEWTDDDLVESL

SMILES | IC50 [1] | IC50 ([2]; HEK293, Table 6, MTS assay) | IC50 [3] | IC50 [5] | total RNA pol II [6] | IC50 [7] | IC50 ([8]; Table 5, read-out: CDK5/p25) | IC50 [9, 26] | IC50 [9, 27] | IC50 [10, 28] | IC50 ([11]; Table 5, read-out: GSK-3α/β) | IC50 ([12]; Table 6, MTS assay) | IC50 [13] | IC50 [14] | total Rb [15] | IC50 [16] | IC50 ([17]; Table 5) | other results
CC[C@H](CO)Nc1cc(NCc2ccccc2)c2ncn(C(C)C)c2n1 [(R)-perharidine A] | 2.8 µM | 27.4 µM | 10 µM | 0.48 µM | essentially constant | 0.3 µM | 0.4 µM | 7.05 µM | 7.05 µM | 0.43 µM | > 100 µM | 14.3 µM | 21.5 µM | 7 µM | essentially constant | 0.18 µM | 11 µM | IC50 ([2]; HEK293, Table 4, MTS assay): 35.6 µM; IC50 [4]: 0.9 µM; IC50 ([8]; Table 4, read-out: CDK5): 0.2 µM; IC50 ([10]; Table 4, read-out: CDK1): 0.35 µM; IC50 ([11]; Table 4, read-out: GSK3): > 30 µM; IC50 ([12]; Table 4, MTS assay): 16.2 µM; IC50 ([17]; Table 4): 4 µM
CC[C@H](CO)Nc1cc(NCc2ccc(-c3ccccn3)cc2)c2ncn(C(C)C)c2n1 [(R)-perharidine C] | 11 µM |  | 0.35 µM | 0.53 µM | essentially constant | 0.36 µM | 0.6 µM | 0.31 µM | 0.31 µM | 0.46 µM | 11 µM | 1.46 µM |  | 22 µM | essentially constant | 0.25 µM | 1.1 µM | PARP cleavage [18]: at lower concentration than (R)-Roscovitine; IC50 [19]: 0.29 µM; inhibition of CDK9 in cells (RNA polymerase II Ser2 phosphorylation) ([6]; FIG. 9, compared with (R)-Roscovitine): at lower concentration than (R)-Roscovitine; IC50 [20]: 0.6 µM; inhibition of CDK1/cyclin B in cells (protein phosphatase 1-α Thr320 phosphorylation) [21]: at lower concentration than (R)-Roscovitine; IC50 ([9]; LLC B-cells, read-out: Cell death induction): 0.28 µM; p27 total protein down-regulation [22]: at lower concentration than (R)-Roscovitine; down-regulation of survival factor Mcl-1 [23]: at lower concentration than (R)-Roscovitine; inhibition of CDK2/4 in cells (retinoblastoma protein phosphorylation) ([15]; compared with (R)-Roscovitine): at lower concentrations than (R)-Roscovitine; p53 total protein expression [24]: at lower concentration than (R)-Roscovitine
CC[C@@H](CO)Nc1cc(NCc2ccccc2)c2ncn(C(C)C)c2n1 [(S)-perharidine B, (S)-7-Benzylamino-5-[(2-butyl-1-ol)amino]-3-iso-propylimidazo[4,5-b]pyridine] | 22 µM | 45 µM |  | 1.3 µM | essentially constant | 0.42 µM | 0.5 µM | 15.3 µM | 15.3 µM | 0.73 µM | > 30 µM | 28 µM | 37.5 µM | 9 µM | essentially constant | 0.31 µM | 4.8 µM | anti-proliferative activities compared with (R)-Roscovitine [25]: somewhat less efficient
